Measurements as given in US12569534B2, “Therapeutic nanoparticles by coacervate complexation and their use for treating bacteria” (priority 2018, dated 2026).

Tests used:
[1] = tested on: K. pneumoniae NHRI 1 isolate; assay: Mouse survival model of K. pneumoniae infection; assay type: in vivo; conditions: neutropenic Balb/c mice, lethal i.p. infection; 5 mg/kg CS or 20 mg/kg CS NPs (50% MTD) 5 hours post-infection
Protocol: 3 days and 1 day before infection, the mice were injected intraperitoneally with 150 and 100 mg/kg of cyclophosphamide, respectively, to induce neutropenia. K. pneumoniae NHRI 1 isolate was grown in 60 mL Mueller Hinton broth at 150 rpm (orbital shaker, Yihder TS-580) for 2.5 hours at 37° C. to reach the mid-logarithmic phase. The bacteria were then collected at 10,000×g for 10 minutes at 4° C. The bacterial pellet was resuspended in PBS. To induce K. pneumoniae intraperitoneal infection with a lethal bacterial dose, mice were infected with 1.5×10^8 CFU/mouse in […] via intraperitoneal injection. 5 hours post-infection, the infected mice were treated with 5 mg/kg CS (50% MTD), 20 mg/kg CS NPs (50% MTD), or PBS as a control.

[2] = Maximum tolerated dose, intravenous; conditions: BALB/c mice, tail vein, Example 1 study
Excerpt: See e,g., Li et al, International Journal of Pharmaceutics, 2016, 515, 20-29; and Barnett et al., British Journal of Pharmacology and Chemotherapy, 1964, 23, 552-574. The highest dosage at which all examined subjects remained alive was defined as the MTD.
For this study, mice (8 weeks, Balb/c mice) were obtained from Bio-LASCO Taiwan Co., Ltd (Taipei, Taiwan). […] The highest dosage at which all examined subjects remained alive was defined as the MTD.

K. pneumoniae = assay: MIC/MBC broth microdilution, Example 2; assay type: cell-based, Klebsiella pneumoniae; conditions: Example 2 CS NPs
Protocol: (§1) Reference bacterial stains were purchased from ATCC. Clinical isolates of carbapenem-resistant bacteria were obtained from National Health Research Institutes (NHRI) and Tri-Service General Hospital (TSGH). MIC is defined as the lowest concentration of antibiotics required to inhibit the growth of bacteria. MBC is defined as the lowest concentration of antibiotics required to eradicate microorganisms. The MICs of CS and the CS NPs were determined using a broth microdilution method. Bacterial suspensions were adjusted to a turbidity of McFarland 0.5±0.05 and cultured overnight with different concentrations of CS or CS NPs. A control group without antimicrobial treatment was prepared as a reference. Following overnight incubation, solution turbidity was determined by visual inspection. Culture wells with no observable turbidity were further sub-cultured for MBC evaluation. Solutions from the clear wells were deposited onto an agar plate and cultured overnight to determine the MBCs.
(§2) To evaluate the antibacterial efficacy of the CS NPs of this study, their MIC and MBC were assessed against 5 reference bacterial strains and 20 clinical isolates of carbapenem-resistant A. baumannii, E. coli, K. pneumoniae, and P. aeruginosa according to the procedures set forth in EXAMPLE 1. Reference bacterial stains were purchased from ATCC. Carbapenem-resistant clinical isolated were obtained from NHRI.

[3] = mouse, in vivo, iv, 4 mg/kg
Protocol: A group of mice were injected intravenously with sterile PBS through the tail vein as negative control. 24 hours after the last treatment, 0.5 mL of blood was collected from the animals for comprehensive metabolic panel analysis. The data was analyzed by Student's t-test followed by Dunnett's multiple comparison tests using GraphPad Prism (GraphPad Software, San Diego, CA). p values smaller than 0.05 were considered significant.

E. coli = assay: MIC/MBC broth microdilution, Example 1; assay type: cell-based; conditions: Example 1 CS NPs
Protocol: (§3) To evaluate antibacterial efficacy of the CS NPs, their minimum inhibitory concentration (MIC) and minimum bactericidal concentration (MBC) were assessed against 5 reference bacterial strains and 39 clinical isolates of carbapenem-resistant A. baumannii, P. aeruginosa, E. coli, and K. pneumoniae.
as §1

P. aeruginosa = assay: MIC/MBC broth microdilution, Example 1; assay type: cell-based, Pseudomonas aeruginosa; conditions: Example 1 CS NPs
Protocol: as §3, §1

A. baumannii [4] = assay: MIC/MBC broth microdilution, Example 2; assay type: cell-based, Acinetobacter baumannii; conditions: Example 2 CS NPs
Protocol: as §1, §2

A. baumannii [5] = assay: MIC/MBC broth microdilution, Example 1; assay type: cell-based, Acinetobacter baumannii; conditions: Example 1 CS NPs
Protocol: as §3, §1

[6] = clinical carbapenem-resistant isolate K. pneumoniae NHRI 1
[7] = clinical carbapenem-resistant isolate K. pneumoniae NHRI 2
[8] = clinical carbapenem-resistant isolate K. pneumoniae NHRI 3
[9] = clinical carbapenem-resistant isolate K. pneumoniae NHRI 4
[10] = clinical carbapenem-resistant isolate K. pneumoniae NHRI 5
[11] = clinical carbapenem-resistant E. coli NHRI 1
[12] = clinical carbapenem-resistant E. coli NHRI 2
[13] = clinical carbapenem-resistant E. coli NHRI 3
[14] = clinical carbapenem-resistant E. coli NHRI 4
[15] = clinical carbapenem-resistant E. coli NHRI 5
[16] = clinical carbapenem-resistant E. coli TSGH 2
[17] = clinical carbapenem-resistant E. coli TSGH 4
[18] = clinical carbapenem-resistant E. coli TSGH 6
[19] = clinical carbapenem-resistant E. coli TSGH 8
[20] = clinical carbapenem-resistant E. coli TSGH 10
[21] = clinical carbapenem-resistant E. coli TSGH 14
[22] = clinical carbapenem-resistant E. coli TSGH 20
[23] = clinical carbapenem-resistant E. coli TSGH 21
[24] = clinical carbapenem-resistant P. aeruginosa NHRI 1
[25] = clinical carbapenem-resistant P. aeruginosa NHRI 2
[26] = clinical carbapenem-resistant P. aeruginosa NHRI 3
[27] = clinical carbapenem-resistant P. aeruginosa NHRI 4
[28] = clinical carbapenem-resistant P. aeruginosa NHRI 5
[29] = reference strain P. aeruginosa 27853
[30] = clinical carbapenem-resistant isolate A. baumannii NHRI 1
[31] = clinical carbapenem-resistant isolate A. baumannii NHRI 2
[32] = clinical carbapenem-resistant isolate A. baumannii NHRI 3
[33] = clinical carbapenem-resistant isolate A. baumannii NHRI 4
[34] = clinical carbapenem-resistant isolate A. baumannii NHRI 5
[35] = reference strain A. baumannii 17978
[36] = reference strain A. baumannii 19606
[37] = clinical carbapenem-resistant A. baumannii NHRI 1
[38] = clinical carbapenem-resistant A. baumannii NHRI 2
[39] = clinical carbapenem-resistant A. baumannii NHRI 3
[40] = clinical carbapenem-resistant A. baumannii NHRI 4
[41] = clinical carbapenem-resistant A. baumannii NHRI 5
[42] = reference strain A. baumannii 15151

## colistin [CS]
[1]
  mice survival rate: did not improve survival
[2]
  MTD: 10 mg/kg
K. pneumoniae; [6]
  MBC: 4 µg/mL
  MIC: 1 µg/mL
K. pneumoniae; [7]
  MBC: 1 µg/mL
  MIC: 1 µg/mL
K. pneumoniae; [8]
  MBC: 2 µg/mL
  MIC: 1 µg/mL
K. pneumoniae; [9]
  MBC: 2 µg/mL
  MIC: 2 µg/mL
K. pneumoniae; [10]
  MBC: 4 µg/mL
  MIC: 1 µg/mL
[3]
  other parameters in the comprehensive metabolic panel: neither CS nor the CS NPs induced any notable changes
E. coli; [11]
  MBC: 1 µg/mL
  MIC: 1 µg/mL
E. coli; [12]
  MBC: 1 µg/mL
  MIC: 1 µg/mL
E. coli; [13]
  MBC: 1 µg/mL
  MIC: 1 µg/mL
E. coli; [14]
  MBC: 2 µg/mL
  MIC: 1 µg/mL
E. coli; [15]
  MBC: 2 µg/mL
  MIC: 1 µg/mL
E. coli; [16]
  MBC: 1 µg/mL
  MIC: 1 µg/mL
E. coli; [17]
  MBC: 1 µg/mL
  MIC: 1 µg/mL
E. coli; [18]
  MBC: 2 µg/mL
  MIC: 1 µg/mL
E. coli; [19]
  MBC: 2 µg/mL
  MIC: 1 µg/mL
E. coli; [20]
  MBC: 1 µg/mL
  MIC: 1 µg/mL
E. coli; [21]
  MBC: 1 µg/mL
  MIC: 1 µg/mL
E. coli; [22]
  MBC: 1 µg/mL
  MIC: 1 µg/mL
E. coli; [23]
  MBC: 1 µg/mL
  MIC: 1 µg/mL
E. coli; reference strain E. coli 25922
  MBC: 2 µg/mL
  MIC: 1 µg/mL
P. aeruginosa; [24]
  MBC: 2 µg/mL
  MIC: 2 µg/mL
P. aeruginosa; [25]
  MBC: 4 µg/mL
  MIC: 2 µg/mL
P. aeruginosa; [26]
  MBC: 8 µg/mL
  MIC: 2 µg/mL
P. aeruginosa; [27]
  MBC: 8 µg/mL
  MIC: 4 µg/mL
P. aeruginosa; [28]
  MBC: 4 µg/mL
  MIC: 2 µg/mL
P. aeruginosa; [29]
  MBC: 1 µg/mL
  MIC: 1 µg/mL
A. baumannii [4]; [30]
  MBC: 2 µg/mL
  MIC: 1 µg/mL
A. baumannii [4]; [31]
  MBC: 2 µg/mL
  MIC: 2 µg/mL
A. baumannii [4]; [32]
  MBC: 2 µg/mL
  MIC: 1 µg/mL
A. baumannii [4]; [33]
  MBC: 4 µg/mL
  MIC: 1 µg/mL
A. baumannii [4]; [34]
  MBC: 2 µg/mL
  MIC: 1 µg/mL
A. baumannii [4]; [35]
  MBC: 2 µg/mL
  MIC: 2 µg/mL
A. baumannii [4]; [36]
  MBC: 4 µg/mL
  MIC: 2 µg/mL
A. baumannii [5]; [37]
  MBC: 2 µg/mL
  MIC: 1 µg/mL
A. baumannii [5]; [38]
  MBC: 2 µg/mL
  MIC: 1 µg/mL
A. baumannii [5]; [39]
  MBC: 1 µg/mL
  MIC: 1 µg/mL
A. baumannii [5]; [40]
  MBC: 2 µg/mL
  MIC: 1 µg/mL
A. baumannii [5]; [41]
  MBC: 1 µg/mL
  MIC: 1 µg/mL
A. baumannii [5]; [42]
  MBC: 1 µg/mL
  MIC: 1 µg/mL
A. baumannii [5]; [35]
  MBC: 1 µg/mL
  MIC: 1 µg/mL
A. baumannii [5]; [36]
  MBC: 1 µg/mL
  MIC: 1 µg/mL
